These molecules were tested against T1, F508del (Homo sapiens, UniProt P13569, DEL508-508) (assay: Protocol 1: membrane potential optical assay (FLIPR III, voltage sensing dye), identification of potentiator compounds). Conditions: Table 3, compounds of Table 1.
T1 construct: expressed in transfected cells
Format: cell-based
Method in brief: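 NIH 3T3 fibroblasts stably expressing F508del were cultured at 27° C for 24 hrs for temperature correction, then treated with compounds or DMSO and loaded with a voltage-sensing redistribution dye. Forskolin added with a Cl⁻ gradient activated the channel; membrane-potential fluorescence on FLIPR III reported increased gating.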

T1 sequence (P13569 with tags, fused parts or gaps DEL508-508): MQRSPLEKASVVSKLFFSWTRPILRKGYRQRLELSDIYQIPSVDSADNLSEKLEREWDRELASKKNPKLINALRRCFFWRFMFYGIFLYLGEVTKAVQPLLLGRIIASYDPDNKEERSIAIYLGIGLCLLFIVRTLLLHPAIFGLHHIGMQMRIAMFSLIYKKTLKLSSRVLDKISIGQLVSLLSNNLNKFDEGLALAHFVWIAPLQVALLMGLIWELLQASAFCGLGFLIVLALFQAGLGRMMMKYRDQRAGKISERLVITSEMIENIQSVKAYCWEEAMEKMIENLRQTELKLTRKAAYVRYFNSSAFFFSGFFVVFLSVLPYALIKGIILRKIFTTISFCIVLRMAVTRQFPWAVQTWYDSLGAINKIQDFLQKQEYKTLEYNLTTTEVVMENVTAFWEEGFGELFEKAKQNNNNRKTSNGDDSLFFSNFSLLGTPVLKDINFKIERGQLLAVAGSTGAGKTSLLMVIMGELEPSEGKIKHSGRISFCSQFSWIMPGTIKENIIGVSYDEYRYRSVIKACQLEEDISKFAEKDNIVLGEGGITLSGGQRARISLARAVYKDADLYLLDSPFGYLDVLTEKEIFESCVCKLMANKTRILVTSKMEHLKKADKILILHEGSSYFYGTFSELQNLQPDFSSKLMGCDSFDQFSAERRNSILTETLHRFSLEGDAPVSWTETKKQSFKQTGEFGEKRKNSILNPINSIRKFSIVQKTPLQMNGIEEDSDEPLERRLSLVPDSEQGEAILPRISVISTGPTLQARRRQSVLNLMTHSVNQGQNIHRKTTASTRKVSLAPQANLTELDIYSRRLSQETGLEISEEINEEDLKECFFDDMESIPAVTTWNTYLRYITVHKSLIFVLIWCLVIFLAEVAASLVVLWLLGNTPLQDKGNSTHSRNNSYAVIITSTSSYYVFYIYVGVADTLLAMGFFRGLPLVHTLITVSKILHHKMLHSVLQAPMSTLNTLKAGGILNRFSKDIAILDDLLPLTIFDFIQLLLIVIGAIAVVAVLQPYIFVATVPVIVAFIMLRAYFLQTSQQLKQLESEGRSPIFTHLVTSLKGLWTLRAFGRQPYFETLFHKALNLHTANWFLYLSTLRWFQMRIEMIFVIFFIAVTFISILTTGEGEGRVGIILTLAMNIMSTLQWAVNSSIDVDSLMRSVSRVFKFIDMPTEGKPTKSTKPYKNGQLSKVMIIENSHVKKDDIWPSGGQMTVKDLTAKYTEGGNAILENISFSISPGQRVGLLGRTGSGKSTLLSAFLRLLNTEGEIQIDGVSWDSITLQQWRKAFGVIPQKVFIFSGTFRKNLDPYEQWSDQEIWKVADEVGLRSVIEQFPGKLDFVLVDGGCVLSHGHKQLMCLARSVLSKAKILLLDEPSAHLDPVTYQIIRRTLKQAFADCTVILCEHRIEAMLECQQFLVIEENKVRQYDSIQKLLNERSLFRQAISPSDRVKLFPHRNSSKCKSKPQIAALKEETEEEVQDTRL

**Q.** `C[C@@H]1CC[C@H](C)N1c1nc(-c2ccc(OC(F)F)nc2)ccc1C(=O)NS(=O)(=O)c1cccc(N)n1` [Compound 1679, N-[(6-amino-2-pyridyl)sulfonyl]-6-[6-(difluoromethoxy)-3-pyridyl]-2-[(2S,5R)-2,5-dimethylpyrrolidin-1-yl]pyridine-3-carboxamide] was tested. Which EC30 did it give?
**A.** The EC30 was “+++ (“+++” means <3 uM)”.

**Q.** With `C[C@@H]1CC[C@H](C)N1c1nc(-c2ccccc2)ccc1C(=O)NS(=O)(=O)c1cccc(N)n1` [Compound 805, N-[(6-amino-2-pyridyl)sulfonyl]-2-[(2S,5R)-2,5-dimethylpyrrolidin-1-yl]-6-phenyl-pyridine-3-carboxamide] as the molecule, how does the EC30 read?
**A.** The EC30 was “+++ (“+++” means <3 uM)”.

**Q.** How did the EC30 turn out when `CC(C)COc1cc(F)cc(-c2ccc(C(=O)NS(=O)(=O)c3cccc(N)n3)c(OCCC3CCCCO3)n2)c1` (stereo not drawn) [Compound 1680, N-[(6-amino-2-pyridyl)sulfonyl]-6-(3-fluoro-5-isobutoxy-phenyl)-2-(2-tetrahydropyran-2-ylethoxy)pyridine-3-carboxamide] was run?
**A.** Its EC30 is “+++ (“+++” means <3 uM)”.

**Q.** With `C[C@@H]1CC[C@H](C)N1c1nc(-c2ccc(OC3CC3)nc2)ccc1C(=O)NS(=O)(=O)c1cccc(N)n1` [Compound 1125, N-[(6-amino-2-pyridyl)sulfonyl]-6-[6-(cyclopropoxy)-3-pyridyl]-2-[(2S,5R)-2,5-dimethylpyrrolidin-1-yl]pyridine-3-carboxamide] as the molecule, how does the EC30 read?
**A.** Its EC30 is “++ (“++” means between 3 uM and 10 uM)”.

**Q.** For `CC(C)Oc1ccc(-c2ccc(C(=O)NS(=O)(=O)c3cccc(N)n3)c(N3CCC(Oc4ccccc4)CC3)n2)cn1` [Compound 1080, N-[(6-amino-2-pyridyl)sulfonyl]-6-(6-isopropoxy-3-pyridyl)-2-(4-phenoxy-1-piperidyl)pyridine-3-carboxamide], which EC30 is on record?
**A.** The EC30 was “+++ (“+++” means <3 uM)”.

**Q.** With `CC(C)COc1cc(F)cc(-c2ccc(C(=O)NS(=O)(=O)c3nc(N)cs3)c(N3CCC(C)(C)CC3)n2)c1` [Compound 1168, N-(4-aminothiazol-2-yl)sulfonyl-2-(4,4-dimethyl-1-piperidyl)-6-(3-fluoro-5-isobutoxy-phenyl)pyridine-3-carboxamide] as the molecule, how does the EC30 read?
**A.** The EC30 was “+++ (“+++” means <3 uM)”.

**Q.** `CC(C)COc1cc(F)cc(-c2ccc(C(=O)NS(=O)(=O)c3cccc(N)n3)c(N3CC(C)CCC3C)n2)c1` (single isomer, unassigned) [Compound 1855, N-[(6-amino-2-pyridyl)sulfonyl]-2-(2,5-dimethyl-1-piperidyl)-6-(3-fluoro-5-isobutoxy-phenyl)pyridine-3-carboxamide] was tested. Which EC30 did it give?
**A.** Its EC30 is “+++ (“+++” means <3 uM)”.

**Q.** Which EC30 does the source give for `CC(C)Oc1ccc(-c2ccc(C(=O)NS(=O)(=O)c3cccc(N)n3)c(N3C[C@H](C)C[C@H](C)C3)n2)cn1` [Compound 1145, N-[(6-amino-2-pyridyl)sulfonyl]-2-[(3R,5S)-3,5-dimethyl-1-piperidyl]-6-(6-isopropoxy-3-pyridyl)pyridine-3-carboxamide] here?
**A.** The EC30 was “+++ (“+++” means <3 uM)”.

**Q.** With `CC(C)Oc1ccc(-c2nc(N3C[C@@H](C)CC3(C)C)ccc2C(=O)NS(=O)(=O)c2cccc(N)n2)cn1` [Compound 1436, N-[(6-amino-2-pyridyl)sulfonyl]-2-(6-isopropoxy-3-pyridyl)-6-[(4S)-2,2,4-trimethylpyrrolidin-1-yl]pyridine-3-carboxamide] as the molecule, how does the EC30 read?
**A.** Its EC30 is “++ (“++” means between 3 uM and 10 uM)”.

**Q.** For `Cc1ccc(Oc2nc(-c3cc(F)cc(OC(C)C)c3)ccc2C(=O)NS(=O)(=O)c2cc[nH]n2)c(C)c1` [Compound 1213, 2-(2,4-dimethylphenoxy)-6-(3-fluoro-5-isopropoxy-phenyl)-N-(1H-pyrazol-3-ylsulfonyl)pyridine-3-carboxamide], which EC30 is on record?
**A.** The EC30 was “++ (“++” means between 3 uM and 10 uM)”.

**Q.** `COc1ccc(-c2ccc(C(=O)NS(=O)(=O)c3cccc(N)n3)c(Oc3c(C)cc(C)cc3C)n2)c(C)n1` [Compound 1212, N-[(6-amino-2-pyridyl)sulfonyl]-6-(6-methoxy-2-methyl-3-pyridyl)-2-(2,4,6-trimethylphenoxy)pyridine-3-carboxamide] was tested. Which EC30 did it give?
**A.** Its EC30 is “+++ (“+++” means <3 uM)”.

**Q.** With `CC1CN(c2ncc(-c3ccccc3)cc2C(=O)NS(=O)(=O)c2cccc(N)n2)C(C)(C)C1` (stereo not drawn) [Compound 1384, N-[(6-amino-2-pyridyl)sulfonyl]-5-phenyl-2-(2,2,4-trimethylpyrrolidin-1-yl)pyridine-3-carboxamide] as the molecule, how does the EC30 read?
**A.** Its EC30 is “+++ (“+++” means <3 uM)”.

**Q.** `CC(C)COc1cc(F)cc(-c2ccc(C(=O)NS(=O)(=O)c3cccc(N)n3)c(N3CCC(C)(C)C3C)n2)c1` (stereo not drawn) [Compound 1156, N-[(6-amino-2-pyridyl)sulfonyl]-6-(3-fluoro-5-isobutoxy-phenyl)-2-(2,3,3-trimethylpyrrolidin-1-yl)pyridine-3-carboxamide] was tested. Which EC30 did it give?
**A.** Its EC30 is “+++ (“+++” means <3 uM)”.

**Q.** Which EC30 does the source give for `CCOc1cccc2c1CN(Cc1c(C)cc(C)cc1C)[C@@]2(C)C(=O)NS(=O)(=O)c1ccc[nH]c1=O` [Compound 1476, (1R)-4-ethoxy-1-methyl-N-[(2-oxo-1H-pyridin-3-yl)sulfonyl]-2-[(2,4,6-trimethylphenyl)methyl]isoindoline-1-carboxamide] here?
**A.** The EC30 was “+++ (“+++” means <3 uM)”.

**Q.** For `CCCCOc1ccc(-c2ccc(C(=O)NS(=O)(=O)c3ccc[nH]c3=O)c(Oc3c(C)cc(C)cc3C)n2)cc1F` [Compound 1187, 6-(4-butoxy-3-fluoro-phenyl)-N-[(2-oxo-1H-pyridin-3-yl)sulfonyl]-2-(2,4,6-trimethylphenoxy)pyridine-3-carboxamide], which EC30 is on record?
**A.** Its EC30 is “+++ (“+++” means <3 uM)”.

**Q.** How did the EC30 turn out when `CC(C)COc1cc(F)cc(-c2ccc(C(=O)NS(=O)(=O)N3CCC(S(C)(=O)=O)C3)c(N3C[C@@H](C)CC3(C)C)n2)c1` (stereo partly drawn) [Compound 1560, 6-(3-fluoro-5-isobutoxy-phenyl)-N-(3-methylsulfonylpyrrolidin-1-yl)sulfonyl-2-[(4S)-2,2,4-trimethylpyrrolidin-1-yl]pyridine-3-carboxamide] was run?
**A.** Its EC30 is “+++ (“+++” means <3 uM)”.

**Q.** How did the EC30 turn out when `CC1CN(c2ncccc2C(=O)NS(=O)(=O)c2cccc(OCc3cc(-c4ccccc4)on3)n2)C(C)(C)C1` (stereo not drawn) [Compound 1777, N—[[6-[(5-phenylisoxazol-3-yl)methoxy]-2-pyridyl]sulfonyl]-2-(2,2,4-trimethylpyrrolidin-1-yl)pyridine-3-carboxamide] was run?
**A.** The EC30 was “+++ (“+++” means <3 uM)”.

**Q.** How did the EC30 turn out when `CC(C)COc1cc(F)cc(-c2ccc(C(=O)NS(=O)(=O)c3cccc(N)n3)c(OCCCCc3cccnc3)n2)c1` [Compound 1690, N-[(6-amino-2-pyridyl)sulfonyl]-6-(3-fluoro-5-isobutoxy-phenyl)-2-[4-(3-pyridyl)butoxy]pyridine-3-carboxamide] was run?
**A.** The EC30 was “+++ (“+++” means <3 uM)”.

**Q.** With `CC1CN(c2ncccc2C(=O)NS(=O)(=O)c2cccc(OC(C)C3CCCCC3)n2)C(C)(C)C1` (stereo not drawn) [Compound 1919, N—[[6-(1-cyclohexylethoxy)-2-pyridyl]sulfonyl]-2-(2,2,4-trimethylpyrrolidin-1-yl)pyridine-3-carboxamide] as the molecule, how does the EC30 read?
**A.** The EC30 was “+++ (“+++” means <3 uM)”.

**Q.** How did the EC30 turn out when `CC(=O)N1CCc2cc(Nc3cccc(S(=O)(=O)NC(=O)c4cccnc4N4CC(C)CC4(C)C)n3)ccc21` (stereo not drawn) [Compound 1877, N—[[6-[(1-acetylindolin-5-yl)amino]-2-pyridyl]sulfonyl]-2-(2,2,4-trimethylpyrrolidin-1-yl)pyridine-3-carboxamide] was run?
**A.** Its EC30 is “++ (“++” means between 3 uM and 10 uM)”.

**Q.** For `CCC1(CC)CCCN(c2nc(-c3ccc(OC(C)C)nc3)ccc2C(=O)NS(=O)(=O)c2cccc(N)n2)C1` [Compound 971, N-[(6-amino-2-pyridyl)sulfonyl]-2-(3,3-diethyl-1-piperidyl)-6-(6-isopropoxy-3-pyridyl)pyridine-3-carboxamide], which EC30 is on record?
**A.** The EC30 was “+++ (“+++” means <3 uM)”.

Source: patent publication US10758534B2 (Vertex Pharmaceuticals Incorporated, priority 2014, dated 2020)
